Patent US7402314B2, “In vivo activation of tumor-specific cytotoxic T cells” (The Scripps Research Institute, priority 1995, dated 2008)
Values joined by “and” are separate entries in the source; they are usually repeats but may differ in a detail not shown here. Identical values can stand only once.

How the values were obtained:
A2.1/K^b-Tg mice = experiment: Peptide priming of A2.1/K^b-Tg mice, lytic activity of peptide-specific CTL; format: in vivo; set-up: Lytic Activity by Peptide-Specific CTL After Priming of A2.1/K^b-Tg Mice [Specific ^51Cr release (%)]: concentration or dose not given beside the values; conditions: for Lytic Activity by Peptide-Specific CTL After Priming of A2.1/K^b-Tg Mice [Specific ^51Cr release (%)]: E:T ratio of 60:1, peptide-pulsed T2A2/K^b targets, highest of at least three individual mice; for A2.1/K^b-restricted peptide-specific CTL response of A2.1/K^b-Tg mice (in words): mouse, in vivo
Saos-2/175 = experiment: 5-hour ^51Cr release assay, endogenously synthesized p53 epitopes (Example 4); format: cell-based, human; conditions: relative to p53-deficient Saos-2
HLA-A2.1 = HLA-A2.1 (Homo sapiens, UniProt P04439, D140Y/D185E/D98H/E176V/E277Q/G131W/G231S/I119V/I121R/I166T/I218V/L300P/L318F/N151K/N90K/P208A/P217A/Q86G/Q94H/R138H/R169H/T345S); experiment: Competition assay of peptide binding to HLA-A2.1 (inhibition of M1 58-66 binding, clone 12 lysis of EA2 targets)
CASKI = experiment: Cytotoxicity assay, killing of tumors (Table 7); format: cell-based, human
Protocol: (§1) One hundred and six (106) target cells were incubated at 37° C. with […] of sodium ^51Cr chromate for 90 minutes in the presence or absence of specific peptide. Cells were washed three times and resuspended in 5% RPMI. For the assay, 104 ^51Cr-labeled target cells were incubated with different concentrations of effector cells in a final volume of […] in U-bottomed 96-well plates. Supernatants were removed after 4-7 hrs at 37° C., and the percent specific lysis was determined by the following formula: […]
(§2) Tumor cells were preincubated for 24 hours prior to the assay in media supplemented with γ-interferon (γ-IFN, 20 ng/ml) plus tumor necrosis factor-α (TNF-α, 3 ng/ml). It is known that such pretreatment of tumor cells increases the expression of MHC I and adhesion molecules such as ICAM I on the surface of the cell thus enhancing their sensitivity to lysis by CTL. (See, e.g., Fisk, et al., Lympho. & Cylokine Res. 13: 125-131 (1994); Fady, et al., Cancer Immunol. Immunother. 37: 329-336 (1993).)

T98G = experiment: Cytotoxicity assay, killing of tumors (Table 7); format: cell-based, human
Protocol: as §1, §2

MDA.MB435 = experiment: Cytotoxicity assay, killing of tumors (Table 7); format: cell-based, human
Protocol: as §1, §2

MCF-7 = experiment: Cytotoxicity assay, killing of tumors (Table 7); format: cell-based, human
Protocol: as §1, §2

SV80 = experiment: Cytotoxicity assay, killing of tumors (Table 7); format: cell-based, human
Protocol: as §1, §2

LG-2 = experiment: Cytotoxicity assay, killing of tumors (Table 7); format: cell-based, human
Protocol: as §1, §2

MALME-3M = experiment: Cytotoxicity assay, killing of tumors (Table 7); format: cell-based, human
Protocol: as §1, §2

U2-OS = experiment: Cytotoxicity assay, killing of tumors (Table 7); format: cell-based, human
Protocol: as §1, §2

U87G = experiment: Cytotoxicity assay, killing of tumors (Table 7); format: cell-based, human
Protocol: as §1, §2

SW480 = experiment: Cytotoxicity assay, killing of tumors (Table 7); format: cell-based, human
Protocol: as §1, §2

SAOS.175 = experiment: Cytotoxicity assay, killing of tumors (Table 7); format: cell-based, human
Protocol: as §1, §2

OVCAR-5 = experiment: Cytotoxicity assay, killing of tumors (Table 7); format: cell-based, human
Protocol: as §1, §2

SKMEL-5 = experiment: Cytotoxicity assay, killing of tumors (Table 7); format: cell-based, human
Protocol: as §1, §2

Hep-G2 = experiment: Cytotoxicity assay, killing of tumors (Table 7); format: cell-based, human
Protocol: as §1, §2

ST486 = experiment: Cytotoxicity assay, killing of tumors (Table 7); format: cell-based, human
Protocol: as §1, §2

JY = experiment: Cytotoxicity assay, killing of tumors (Table 7); format: cell-based, human
Protocol: as §1, §2

Sequence	Lytic Activity by Peptide-Specific CTL After Priming of A2.1/K^b-Tg Mice [Specific ^51Cr release (%)] (A2.1/K^b-Tg mice) [%]	A2.1/K^b-restricted peptide-specific CTL response of A2.1/K^b-Tg mice (in words) (A2.1/K^b-Tg mice)	further results
RMPEAAPPV [hu-wt-p53 65-73]	85	detectable	recognition of Saos-2/175 by CTL from A2.1/K^b-Tg mice specific for the peptide (endogenous processing and presentation) (Saos-2/175): did not lyse Saos-2/175; A2.1-binding activity / affinity for the presenting MHC class I molecule (in words) (HLA-A2.1): high affinity
NTFRHSVVV [hu-wt-p53 210-218]	6	–	–
ALNKMFCQL	0	–	–
LLPENNVLSPL [hu-wt-p53 25-35]	47	detectable	recognition of Saos-2/175 by CTL from A2.1/K^b-Tg mice specific for the peptide (endogenous processing and presentation) (Saos-2/175): did not lyse Saos-2/175; A2.1-binding activity / affinity for the presenting MHC class I molecule (in words) (HLA-A2.1): high affinity
PLDGEYFTL [hu-wt-p53 322-330]	0	lack of CTL responsiveness	A2.1-binding activity / affinity for the presenting MHC class I molecule (in words) (HLA-A2.1): intermediate
KLVGKLNWA [HIV-9K, reference compound]	–	–	Killing of Tumors Expressing Her-2/neu (percent specific lysis) (CASKI): 8% and 11%; Killing of Tumors Expressing Her-2/neu (percent specific lysis) (T98G): 9% and 13%; Killing of Tumors Expressing Her-2/neu (percent specific lysis) (MDA.MB435): 4% and 3%; Killing of Tumors Expressing Her-2/neu (percent specific lysis) (MCF-7): 3% and 7%; Killing of Tumors Expressing Her-2/neu (percent specific lysis) (SV80): 2%; Killing of Tumors Expressing Her-2/neu (percent specific lysis) (LG-2): 1%; Killing of Tumors Expressing Her-2/neu (percent specific lysis) (MALME-3M): 2% and 1%; Killing of Tumors Expressing Her-2/neu (percent specific lysis) (U2-OS): 18% and 24%; Killing of Tumors Expressing Her-2/neu (percent specific lysis) (U87G): 5% and 1%; Killing of Tumors Expressing Her-2/neu (percent specific lysis) (SW480): 1% and 4%; Killing of Tumors Expressing Her-2/neu (percent specific lysis) (SAOS.175): 18% and 11%; Killing of Tumors Expressing Her-2/neu (percent specific lysis) (OVCAR-5): 10% and 12%; Killing of Tumors Expressing Her-2/neu (percent specific lysis) (SKMEL-5): 5% and 4%; Killing of Tumors Expressing Her-2/neu (percent specific lysis) (Hep-G2): 1% and 8%; Killing of Tumors Expressing Her-2/neu (percent specific lysis) (ST486): 1%; Killing of Tumors Expressing Her-2/neu (percent specific lysis) (JY): 2% and 1%
AAPTPAAPA [hu-wt-p53 78-86]	0	–	–
AAPPVAPAPAA [hu-wt-p53 69-79]	0	–	–
LLGRNSFEV	94	detectable	–
LLGRDSFEV [mur-wt-p53 261-269, reference compound]	10	No significant response	A2.1-binding activity / affinity for the presenting MHC class I molecule (in words) (HLA-A2.1): highest A2.1-binding activity of all p53 peptides tested
GLAPPQHLI [hu-wt-p53 187-195]	1	lack of CTL responsiveness	A2.1-binding activity / affinity for the presenting MHC class I molecule (in words) (HLA-A2.1): high
AAPPVAPAPA [hu-wt-p53 69-78]	0	–	–
VLSPLPSQA [hu-wt-p53 31-39]	3	–	–
NLLGRNSFEV [hu-wt-p53 263-272]	3	–	–
LLPENNVLS [hu-wt-p53 25-33]	3	–	–
SVTCTYSPA [hu-wt-p53 121-129]	–	–	A2.1-binding: inhibition of A2.1-binding of M1 (58-66) (%) (HLA-A2.1): 8%
ILKEPVHGV [HIV-1 RT 476-484, reference compound]	–	could mount an A2.1/K^b-restricted CTL response	–
DLMLSPDDI [hu-wt-p53 42-50]	0	–	–
VAPAPAAPT [hu-wt-p53 73-81]	0	–	–
VLSPLPSQAM [hu-wt-p53 31-40]	0	–	–
AAPPVAPA [hu-wt-p53 69-76]	0	–	–
ITLEDSSGNL [hu-wt-p53 255-264]	3	lack of CTL responsiveness	A2.1-binding activity / affinity for the presenting MHC class I molecule (in words) (HLA-A2.1): intermediate
LMLSPDDIEQ [hu-wt-p53 43-52]	3	–	–
